Test results reported in patent US12377176B2, “Cancer diagnostic imaging agents” (Technische Universität München, priority 2019, dated 2025).
“And” between values parts separate entries of the source, which are not always exact repeats. Equal values may be shown once. Read-outs that look alike come from different tables or passages of the source.

What was measured:
[1] = system: LNCaP tumor-bearing CB-17 SCID mice; settings: male, mouse, in vivo, 1 h
Protocol: (§1) To establish tumor xenografts, LNCaP cells (10^7 cells/200 μL) were suspended in a 1:1 mixture (v/v) of Dulbecco modified Eagle medium/Nutrition Mixture F-12 with Glutamax-I (1:1) and Matrigel (BD Biosciences, Germany), and inoculated subcutaneously onto the right shoulder of 6-8 weeks old CB17-SCID mice (Charles River, Sulzfeld, Germany). Mice were used for when tumors had grown to a diameter of 5-8 mm (3-4 weeks after inoculation).
(§2) Approximately 1-2 MBq (<0.2 nmol) of the ^18F-labeled PSMA inhibitor was injected into the tail vein of LNCaP tumor-bearing male CB-17 SCID mice and sacrificed after 1 h post injection (n=4-5). Selected organs were removed, weighted and measured in a γ-counter

LNCaP cells = assay: Internalization into LNCaP cells, relative to ([125I]I-BA)KuE; format: cell-based
Protocol: Data is corrected for non-specific binding ([…]) and expressed as mean±SD (n=3).
Subsequent to the removal of the culture medium, the cells were washed once with 500 μL DMEM-F12 (5% BSA) and left to equilibrate for at least 15 min at 37° C. in 200 μL DMEM-F12 (5% BSA). Each well was treated with either 25 μL of either DMEM-F12 (5% BSA) or a 100 μM PMPA solution for blockade. Next, 25 μL of the ^68Ga/^18F-labeled PSMA inhibitor (5.0 nM) was added and the cells incubated at 37° C. for 60 min. The experiment was terminated by placing the 24-well plate on ice for 3 min and consecutive removal of the medium. Each well was rinsed with 250 μL HBSS and the fractions from these first two steps combined, representing the amount of free radioligand. Removal of surface bound activity was accomplished by incubation of the cells with 250 μL of ice-cold PMPA (10 μM in PBS) solution for 5 min and rinsed again with another 250 μL of ice-cold PBS. The internalized activity was determined by incubation of the cells in 250 μL 1 M NaOH and the combination with the fraction of a subsequent wash step with 250 μL 1.0 M NaOH. Each experiment (control and bloackde) was performed in triplicate. Free, surface bound and internalized activity was quantified in a γ-counter. […] Data were corrected for non-specific internalization and normalized to the specific-internalization observed for the radioiodinated reference compound.

[2] = Octanol-water partition coefficient (n-octanol/PBS pH 7.4); format: physicochemical
Protocol: Approximately 1 MBq of the labeled tracer was dissolved in 1 mL of a 1:1 mixture (by volumes) of phosphate buffered saline (PBS, pH 7.4) and n-octanol in an Eppendorf tube. After vigorous mixing of the suspension for 3 minutes at room temperature, the vial was centrifuged at 15000 g for 3 minutes (Biofuge 15, Heraus Sepatech, Osterode, Germany) and 100 μL aliquots of both layers were measured in a gamma counter. The experiment was repeated at least six times.
Determianation of the logP values was carried out in phosphate buffered saline (PBS, pH 7.4) and n-octanol (=logPoct/PBS).

[3] = Metabolic stability and 18F/19F isotopic exchange in mouse urine (radio-HPLC, radio-TLC); format: in vitro ADME, mice
Protocol: Analytical reversed-phase high pressure chromatography (RP-HPLC) were performed using Shimadzu gradient systems (Shimadzu Deutschland GmbH, Neufahrn, Germany), equipped with a SPD-20A UV/Vis detector (220 nm, 254 nm). […] Eluents for all HPLC operations were water (solvent A) and acetonitrile (solvent B), both containing 0.1% trifluoroacetic acid. […] The gradient for all HPLC operations was: 5% B isocratic 0-3 min, 25-35% B 3-43 min, 95-95% B 43-48 min.
For radio-thin-layer chromatography, aluminum sheets coated with silica gel 60 RP-18 F254s were used with a mobile phase consisting of a 3:2 mixture (v/v) of MeCN in H2O supplemented with 10% of 2 M aqueous NaOAc and 1% of TFA. Analysis was performed using either a Scan-RAM radio-TLC detector (LabLogic Systems Ltd., Sheffield, United Kingdom) or a CR 35 BIO phosphorimager (Duerr Medical GmbH, Bietigheim-Bissingen, Germany).
For in vivo μmetabolism studies, 8-12 MBq (<0.6 nmol) of the respective ^18F-labeled ligand (rhPSMA-7.1-7.4) was injected into the tail vein of female healthy CB17-SCID mice (n=4). Mice were left under anesthesia for 30 min and the urine was collected using a bladder catheter. Urine samples were pooled and centrifuged for 5 min at 9000 rpm to remove suspended solids. The supernatant was directly used for radio-HPLC analysis with the above mentioned conditions. […]

[4] = system: LNCaP tumor-bearing CB-17 SCID mice; assay: Biodistribution in LNCaP tumor-bearing SCID mice, 1 h p.i., with or without PMPA
Protocol: as §1, §2

For CC(C)(C)[Si](F)(c1ccc(C(=O)NC[C@@H](NC(=O)CC[C@@H](C(=O)O)N2CCN(CC(=O)O)CCN(CC(=O)O)CCN(CC(=O)O)CC2)C(=O)N[C@H](CCCCNC(=O)CCC(=O)NCCC[C@@H](NC(=O)CC[C@H](NC(=O)N[C@@H](CCC(=O)O)C(=O)O)C(=O)O)C(=O)O)C(=O)O)cc1)C(C)(C)C [rhPSMA7.3, [^19F][^natGa]D-Dap-S-DOTAGA-rhPSMA7, metal not drawn], which Biodistribution adrenals [1] is on record?
Its Biodistribution adrenals is 2.2 ± 0.83 % ID/g.

What about the Biodistribution blood [1] of the same compound?
Its Biodistribution blood is 0.96 ± 0.24 % ID/g.

And the Biodistribution bone [1]?
The Biodistribution bone was 0.38 ± 0.32 % ID/g.

What about the Biodistribution heart [1] of the same compound?
Its Biodistribution heart is 0.87 ± 0.17 % ID/g.

What about the Biodistribution intestine [1] of the same compound?
Its Biodistribution intestine is 0.35 ± 0.07 % ID/g.

What about the Biodistribution kidneys [1] of the same compound?
The Biodistribution kidneys was 292 ± 45.1 % ID/g.

What about the Biodistribution liver [1] of the same compound?
Its Biodistribution liver is 0.69 ± 0.13 % ID/g.

What about the Biodistribution lung [1] of the same compound?
Its Biodistribution lung is 2.2 ± 0.35 % ID/g.

What about the Biodistribution muscle [1] of the same compound?
Its Biodistribution muscle is 0.33 ± 0.15 % ID/g.

And the Biodistribution pancreas [1]?
The Biodistribution pancreas was 0.63 ± 0.44 % ID/g.

What about the Biodistribution spleen [1] of the same compound?
Its Biodistribution spleen is 16.6 ± 2.6 % ID/g.

What about the Biodistribution stomach [1] of the same compound?
Its Biodistribution stomach is 0.44 ± 0.23 % ID/g.

And the Biodistribution tumor [1]?
Its Biodistribution tumor is 18.3 ± 7.2 % ID/g.

And the “internalization rate Mean” value (LNCaP cells; LNCaP cells, 1 h, 37 °C, c=0.5 nM, mean)?
Its value is 161.41 % of [^125I]IB-KuE.

And the individual internalization rates (LNCaP cells; LNCaP cells, 1 h, 37 °C, c=0.5 nM, single measurements)?
The individual internalization rates was 156.6 % of [^125I]IB-KuE and 156.0 % of [^125I]IB-KuE and 171.7 % of [^125I]IB-KuE.

And the internalization (LNCaP cells; mean ± SD as quoted in the discussion)?
Its internalization is 161.41%±8.88.

What about the logP ([2]; n-octanol/PBS, pH 7.4, octanol/PBS7.4, mean of individual measurements, read-out: log P Mean) of the same compound?
The logP was -3.26.

And the “individual log P measurements” value ([2]; octanol/PBS7.4, single measurements)?
Its value is −3.02 and −3.06 and −3.07 and −2.86 and −3.39 and −3.33 and −3.34 and −3.20 and −3.40 and −3.41 and −3.48 and −3.49 and −3.32 and −3.45 and −3.53 and −3.43 and −3.56 and −3.03 and −3.08.

What about the “[F-18]rhPSMA7.3 share of radioactivity in urine” value ([3]; after addition of 5 nmol [F-19]rhPSMA7-3, room temperature) of the same compound?
Its value is 85.8%.

What about the “[F-18]rhPSMA7.3 share of radioactivity in urine” value ([3]; radioactive urine before addition of cold [F-19]rhPSMA7.3) of the same compound?
Its value is 79.4%.

What does the source list for “[^19F][^natGa]D/L-Dap-R/S-DOTAGA-rhPSMA7 [rhPSMA7-rac]”?
Biodistribution adrenals [4]: 3.0 ± 0.45 % ID/g; Biodistribution blood [4]: 1.1 ± 0.03 % ID/g; Biodistribution bone [4]: 0.91 ± 0.11 % ID/g; Biodistribution heart [4]: 0.69 ± 0.07 % ID/g; Biodistribution intestine [4]: 0.60 ± 0.27 % ID/g; Biodistribution kidneys [4]: 71.3 ± 13.3 % ID/g; Biodistribution liver [4]: 0.67 ± 0.07 % ID/g; Biodistribution lung [4]: 1.4 ± 0.17 % ID/g; Biodistribution muscle [4]: 0.36 ± 0.06 % ID/g; Biodistribution pancreas [4]: 0.60 ± 0.10 % ID/g; Biodistribution spleen [4]: 11.1 ± 2.3 % ID/g; Biodistribution stomach [4]: 0.49 ± 0.07 % ID/g; Biodistribution tumor [4]: 10.4 ± 0.67 % ID/g
